Reference: US10266527B2, “T-box riboswitch-binding anti-bacterial compounds” (THE RESEARCH FOUNDATION FOR THE STATE UNIVERSITY OF NEW YORK, priority 2013, dated 2019)
≈ marks a conversion by molar mass, not a printed value. Entries after “also recorded” stand apart in the source; their conditions may differ. Read-outs that look alike come from different tables or passages of the source. Blank lines part the entries; values can stand above or below the compound they belong to.

Columns and labels:
Assay type in all cases: cell-based
[1] = tested on: S. aureus; test: Disc diffusion assay (DDA) of PKZ6 and PKZ18 analogs with S. aureus; details: Table 4, 150 μg/ml, ✓ = zone of inhibition observed
Source text: (§1) The identity and purity of both PKZ 6 and 18 was confirmed by mass spectroscopy. Forty commercially available compounds chosen on the basis of initial in silico selections and similarity to our two hits were screened by disc diffusion assay (DDA) to determine their relative antibacterial activity with S. aureus. […] These 14 compounds were further evaluated by minimum inhibitory concentration assays (MIC)^41,42, and minimum bactericidal assays (MBC)^41 to confirm antibacterial activity, determine the concentration at which S. aureus growth is inhibited in liquid culture (MIC) and if they are acting as bacteriostatic or bactericidal agents (MBC). […] Representative embodiments are shown below.
All compounds were tested at a concentration of 150 μg/ml.

[2] = tested on: S. aureus ATCC 29213; test: Broth microdilution MIC; details: for MIC: Staphylococcus aureus, ATCC29213
Source text: as §1
(§2) Broth microdilution assays^77, 78 were performed with B. subtilis, and S. aureus to determine the lowest compound concentration inhibiting visible growth, i.e., minimum inhibitory concentration (MIC) of the 4 original compounds. […] The insolubility of the fourth compound may account for its lack of antibacterial activity. […] The MICs of each compound are moderate.
(§3) Strains were grown on trypticase soy agar (TSA) with 5% sheep blood at 37° C. for 24 hours. Five isolated colonies were used to inoculate 5 mL cation-adjusted Mueller-Hinton broth (CAMHB) contained in a 50 mL centrifuge tube. The resulting culture was incubated shaking at 200 rpm for 3 hours at 37° C. and then diluted in CAMHB until its turbidity matched that of a 0.5 McFarland standard (OD625 0.08-0.10). After the culture had been standardized against a 0.5 McFarland standard, it was diluted 1:10 in CAMHB and then 5 μL of this dilution was added to the appropriate wells of a 96-well, flat-bottomed tissue culture plate in which each row contained a twofold dilution series of a particular compound ranging in concentration from 0.25 μg/mL to 512 μg/mL. Each plate also included a sterility control well containing CAMHB to which standardized inoculum was not added and a growth control well containing CAMHB to which 5 μL standardized inoculum was added. […] With the exception of the sterility control well, all wells were inoculated within 15 minutes of inoculum preparation to ensure that the starting concentration of bacteria in each well was approximately 5×10^5 CFU/m L. A Tecan Sunrise microplate absorbance reader was used to measure the OD620 of each well before and after 20 h incubation at 37° C. MIC values were recorded as the lowest compound concentration at which no visible growth was observed after this incubation period.

[3] = tested on: E. coli ATCC 25922; test: MBC determination; details: for E. coli (MBC): Table 5 analogs, triplicate experiments, N/O = not observed at concentrations tested (512-0.25 μg/mL)
Description: (§4) Following 24 h incubation of these subcultures at 37° C., MBC values were recorded as the lowest compound concentration at which no viable colonies were observed.

[4] = tested on: S. aureus ATCC 29213; test: MBC determination; details: for S. aureus (MBC): Table 5 analogs, triplicate experiments, N/O = not observed at concentrations tested (512-0.25 μg/mL); for MBC: S. aureus ATCC 29213, N/O = not observed
Source text: as §1, §4

[5] = tested on: E. coli ATCC 25922; test: Broth microdilution MIC (Gram negative specificity control); details: for antibacterial activity against E. coli (in words): E. coli negative control without T-box riboswitch
[6] = tested on: B. subtilis; test: Disc diffusion assay, growth inhibition of B. subtilis; details: Table 1, ✓ = zone of inhibition observed
Source text: The same 20 top binders and 8 additional predicted to interact with the cleft of the tyrRS mRNA Specifier Loop were selected from subsequent docking and preliminary fluorescence data.

[7] = tested on: B. cereus ATCC 7064; test: MBC determination; details: Bacillus cereus, ATCC7064, N/O = not observed, read-out: MBC
Description: as §4

[8] = tested on: B. subtilis BGSC 1A1; test: MBC determination
Description: as §4

[9] = tested on: B. subtilis BGSC 1A1; test: Broth microdilution MIC; details: for MIC: Bacillus subtilis, BGSC1A1, B. subtilis BGSC 1A1, 20 h at 37° C., read-out: MIC
Description: as §2, §3

[10] = tested on: E. faecalis ATCC 29212; test: Broth microdilution MIC
[11] = tested on: Human Embryonic Kidney (HEK293) cells; test: Toxicity on a monolayer of HEK293 cells
[12] = tested on: B. cereus ATCC 7064; test: Broth microdilution MIC; details: for MIC: Bacillus cereus, ATCC7064, B. cereus ATCC 7064, read-out: MIC; for growth inhibition of B. cereus (in words): at moderate concentrations
[13] = tested on: S. pneumoniae ATCC 49619; test: Broth microdilution MIC; details: for MIC: Streptococcus pneumoniae, ATCC49619, S. pneumoniae ATCC 49619, read-out: MIC; for growth inhibition of S. pneumoniae (in words): at moderate concentrations
[14] = tested on: P. aeruginosa ATCC 27853; test: Broth microdilution MIC; details: N/O = not observed
[15] = tested on: E. faecalis ATCC 29212; test: MBC determination; details: N/O = not observed
Description: as §4

[16] = Table 5 analogs, triplicate experiments, N/O = not observed at concentrations tested (512-0.25 μg/mL)
[17] = S. aureus ATCC 29213, N/O = not observed, read-out: MIC
[18] = Table 5 analogs, triplicate experiments, N/O = not observed at concentrations tested (512-0.25 μg/mL), read-out: S. aureus MIC
[19] = Escherichia coli, ATCC25922, Table 5 analogs, triplicate experiments, N/O = not observed at concentrations tested (512-0.25 μg/mL), read-out: E. coli MIC

SMILES: CCCCc1ccc(-c2nc(NC(=O)C3CC=CCC3C(=O)O)sc2C)cc1 (stereo not drawn) [Compound 1805]
- ZOI observed [1]: ✓

- S. aureus MIC [2, 16]: N/O (N/O)
- E. coli MIC [5, 16]: N/O (N/O)
SMILES: O=C(O)C1C2CCC(C2)C1C(=O)Nc1nc(-c2cccs2)cs1 (stereo not drawn) [Compound 1813]
- E. coli (MBC) [3]: N/O (N/O)
- S. aureus (MBC) [4]: N/O (N/O)
- ZOI observed [1]: ✓

SMILES: Cc1sc(NC(=O)C2C3CCC(C3)C2C(=O)O)nc1-c1ccc(C(C)C)cc1 (stereo not drawn) [Compound 18]
- ZOI observed [6]: ✓
- antibacterial activity against S. aureus (in words) [2]: inhibited growth; also recorded: displayed antibacterial properties
- MIC [2, 17]: 64 µg/mL (≈ 161 µM)
- MBC [7]: 64 µg/mL (≈ 161 µM)
- MBC ([8]; Bacillus subtilis, BGSC1A1, IND = indeterminate, read-out: MBC): 64 µg/mL (≈ 161 µM)
- antibacterial activity against B. subtilis (in words) [9]: inhibited growth; also recorded: active
- MIC [9]: 64 µg/mL (≈ 161 µM)
- MBC [4]: N/O
- MIC ([10]; N/O = not observed): N/O (N/D)
- MIC ([5]; E. coli ATCC 25922, N/O = not observed): N/O (N/D)
- antibacterial activity against E. coli (in words) [5]: did not inhibit growth
- 16 hr post exposure % Live ([11]; 32 ug/ml): 100%
- 16 hr post exposure Morphology ([11]; 32 ug/ml): Normal
- 24 hr post exposure % Confluent ([11]; 32 ug/ml): 90%
- 24 hr post exposure % Live ([11]; 32 ug/ml): 100%
- 24 hr post exposure Morphology ([11]; 32 ug/ml): Normal
- 16 hr post exposure % Live ([11]; 64 ug/ml): 100%
- 16 hr post exposure Morphology ([11]; 64 ug/ml): Normal
- 24 hr post exposure % Confluent ([11]; 64 ug/ml): 90%
- 24 hr post exposure % Live ([11]; 64 ug/ml): 90%
- 24 hr post exposure Morphology ([11]; 64 ug/ml): Mix of Normal and Detached
- 16 hr post exposure % Live ([11]; 128 ug/ml): 100%
- 16 hr post exposure Morphology ([11]; 128 ug/ml): Normal
- 24 hr post exposure % Confluent ([11]; 128 ug/ml): 15%
- 24 hr post exposure % Live ([11]; 128 ug/ml): 15%
- 24 hr post exposure Morphology ([11]; 128 ug/ml): Rounded and Detached
- MIC [12]: 64 µg/mL (≈ 161 µM)
- growth inhibition of B. cereus (in words) [12]: inhibited growth
- MIC [13]: 64 µg/mL (≈ 161 µM)
- growth inhibition of S. pneumoniae (in words) [13]: inhibited growth
- MIC [14]: N/O (N/D)

- MIC [2, 18]: 512 µg/mL (≈ 1620 µM)
- MIC [5, 19]: 256 µg/mL (≈ 809 µM)
SMILES: O=C(NCCN1CCNCC1)c1c(O)c2ccccc2[nH]c1=O [Compound 0607]
- E. coli (MBC) [3]: N/O
- S. aureus (MBC) [4]: N/O
- ZOI observed [1]: ✓

SMILES: CCCc1ccc(-c2nc(NC(=O)C3CC(C)=C(C)CC3C(=O)O)sc2C)cc1 (stereo not drawn) [Compound 1808]
- ZOI observed [1]: ✓

- MIC [2, 18]: 512 µg/mL (≈ 1630 µM)
- MIC [5, 19]: 512 µg/mL (≈ 1630 µM)
SMILES: CC(C)CCNC(=O)c1c(O)n2c3c(cccc3c1=O)CCC2 [Compound 0603]
- E. coli (MBC) [3]: N/O
- S. aureus (MBC) [4]: N/O
- ZOI observed [1]: ✓

SMILES: CC1CC(NC(=O)C2C3CCC(C3)C2C(=O)O)CC(C)(C)C1 (stereo not drawn) [Compound 0605]
- ZOI observed [1]: ✓

SMILES: O=C(NCCN1CCNCC1)C1=C(O)C2=CC=CC3CCN(C1=O)C23 (stereo not drawn) [Compound 0613]
- ZOI observed [1]: ✓

SMILES: O=C(NCCN1CCNCC1)c1c(O)c2cccc3c2n(c1=O)CCC3 [Compound 6]
- ZOI observed [6]: ✓
- antibacterial activity against S. aureus (in words) [2]: displayed antibacterial properties
- MIC [2, 17]: 256 µg/mL (≈ 718 µM)
- antibacterial activity against S. aureus (in words) ([2]; listed as PKZ 6): inhibited growth
- MBC ([3]; Escherichia coli, ATCC25922, E. coli ATCC 25922, read-out: MBC): 256 µg/mL (≈ 718 µM)
- MBC [7]: 256 µg/mL (≈ 718 µM)
- MBC [15]: N/O
- MBC ([8]; IND = indeterminate): IND
- antibacterial activity against B. subtilis (in words) [9]: active
- MIC [9]: 32 µg/mL (≈ 89.8 µM)
- antibacterial activity against B. subtilis (in words) ([9]; listed as PKZ 6): inhibited growth
- MBC [4]: N/O
- MIC ([10]; Enterococcus faecalis, ATCC29212, N/O = not observed, read-out: MIC): 128 µg/mL (≈ 359 µM)
- antibacterial activity against E. coli (in words) [5]: moderate antibacterial activity
- MIC ([5]; Escherichia coli, ATCC25922, E. coli ATCC 25922, N/O = not observed, read-out: MIC): 256 µg/mL (≈ 718 µM)
- 16 hr post exposure % Live ([11]; 32 ug/ml): 100%
- 16 hr post exposure Morphology ([11]; 32 ug/ml): Normal
- 24 hr post exposure % Confluent ([11]; 32 ug/ml): 50%
- 24 hr post exposure % Live ([11]; 32 ug/ml): 70%
- 16 hr post exposure % Live ([11]; 64 ug/ml): 60%
- 16 hr post exposure Morphology ([11]; 64 ug/ml): Mix of Normal and Detached
- 24 hr post exposure % Confluent ([11]; 64 ug/ml): 15%
- 24 hr post exposure % Live ([11]; 64 ug/ml): 25%
- 24 hr post exposure Morphology ([11]; 64 ug/ml): Mix of Normal and Detached
- 16 hr post exposure % Live ([11]; 128 ug/ml): 0%
- 16 hr post exposure Morphology ([11]; 128 ug/ml): Rounded and Detached
- 24 hr post exposure % Confluent ([11]; 128 ug/ml): 0%
- 24 hr post exposure % Live ([11]; 128 ug/ml): 0%
- 24 hr post exposure Morphology ([11]; 128 ug/ml): Rounded and Detached
- MIC [12]: 128 µg/mL (≈ 359 µM)
- growth inhibition of B. cereus (in words) [12]: inhibited growth
- MIC [13]: 64 µg/mL (≈ 180 µM)
- growth inhibition of S. pneumoniae (in words) [13]: inhibited growth
- MIC [14]: N/O (N/D)
